According to patent US9358250B2, “Methods of using SCD1 antagonists” (Genentech, Inc., priority 2011, dated 2016):
Where two headings read alike, the source gives them in different places.

Key:
[1] = target: T1, SCD1 (Homo sapiens, UniProt O00767); conditions: cited from earlier work
T1 sequence (O00767 1-359): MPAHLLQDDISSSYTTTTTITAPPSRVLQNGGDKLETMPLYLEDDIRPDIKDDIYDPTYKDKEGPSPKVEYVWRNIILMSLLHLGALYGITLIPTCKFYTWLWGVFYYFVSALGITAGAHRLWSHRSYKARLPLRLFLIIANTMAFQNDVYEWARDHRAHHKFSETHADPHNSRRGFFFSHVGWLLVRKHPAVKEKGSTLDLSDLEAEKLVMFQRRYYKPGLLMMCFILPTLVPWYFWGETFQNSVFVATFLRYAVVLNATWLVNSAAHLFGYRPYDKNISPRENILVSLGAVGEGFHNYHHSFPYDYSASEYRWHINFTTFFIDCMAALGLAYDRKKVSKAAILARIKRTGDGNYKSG

[2] = target: T1, SCD1; conditions: cited from earlier work; for IC50: human SCD1
[3] = target: T2, rat SCD1 (Rattus norvegicus, UniProt P07308); conditions: cited from earlier work
T2 sequence (P07308 1-358): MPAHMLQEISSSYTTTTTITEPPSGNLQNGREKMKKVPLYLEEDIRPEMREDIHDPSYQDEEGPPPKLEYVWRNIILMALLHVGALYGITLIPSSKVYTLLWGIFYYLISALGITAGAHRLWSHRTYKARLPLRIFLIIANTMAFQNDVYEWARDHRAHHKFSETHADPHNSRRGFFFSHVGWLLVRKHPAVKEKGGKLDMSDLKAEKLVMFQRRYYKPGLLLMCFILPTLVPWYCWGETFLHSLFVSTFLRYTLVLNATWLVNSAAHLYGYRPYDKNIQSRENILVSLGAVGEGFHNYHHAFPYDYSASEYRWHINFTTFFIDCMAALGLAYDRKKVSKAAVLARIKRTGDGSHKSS

[4] = 30 min incubation; cited from earlier work
[5] = 30 min incubation; cited from earlier work; remark: listed apart in the source
[6] = target: Δ5 desaturase (Homo sapiens, UniProt O60427); conditions: cited from earlier work
Sequence of Δ5 desaturase (O60427 whole entry, stated change not applied): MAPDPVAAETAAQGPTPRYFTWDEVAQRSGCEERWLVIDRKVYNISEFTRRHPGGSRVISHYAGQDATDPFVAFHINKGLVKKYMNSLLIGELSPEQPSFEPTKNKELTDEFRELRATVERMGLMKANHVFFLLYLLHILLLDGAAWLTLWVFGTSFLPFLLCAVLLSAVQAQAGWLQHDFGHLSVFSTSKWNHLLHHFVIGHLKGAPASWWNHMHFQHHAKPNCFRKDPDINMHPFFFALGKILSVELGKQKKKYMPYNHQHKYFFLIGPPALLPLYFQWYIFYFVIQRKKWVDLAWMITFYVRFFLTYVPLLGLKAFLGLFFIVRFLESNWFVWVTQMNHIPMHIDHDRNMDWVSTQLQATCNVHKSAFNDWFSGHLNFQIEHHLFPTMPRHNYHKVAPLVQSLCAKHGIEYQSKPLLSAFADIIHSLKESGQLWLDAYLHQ

[7] = target: T3, Δ6 desaturase (Homo sapiens, UniProt O95864); conditions: cited from earlier work
T3 sequence (O95864 1-444): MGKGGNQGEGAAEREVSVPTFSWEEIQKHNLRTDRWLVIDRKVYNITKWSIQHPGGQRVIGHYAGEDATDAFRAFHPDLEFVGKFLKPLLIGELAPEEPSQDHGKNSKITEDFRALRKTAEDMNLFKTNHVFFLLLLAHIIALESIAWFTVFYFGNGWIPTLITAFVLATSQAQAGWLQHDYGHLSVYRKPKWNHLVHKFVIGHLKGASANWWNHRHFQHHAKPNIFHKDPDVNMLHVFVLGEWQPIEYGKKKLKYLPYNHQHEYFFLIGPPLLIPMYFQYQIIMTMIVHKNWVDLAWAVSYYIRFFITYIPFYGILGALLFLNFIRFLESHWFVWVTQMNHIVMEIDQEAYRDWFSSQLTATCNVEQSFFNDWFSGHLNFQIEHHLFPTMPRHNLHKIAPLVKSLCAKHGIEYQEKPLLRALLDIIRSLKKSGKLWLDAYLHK

[8] = system: phosphorylation of AKT, S6, and MAPK; assay: Western blot, FGF1-stimulated RT112 cells; type: cell-based, human; conditions: rapamycin 50 nM, Ly294002 20 μM, PD325901 100 nM
Protocol: (§1) FIG. 8. FGFR3 signalling promotes the accumulation of matured SREBP1 and lipogenesis via PI3K-mTORC1 pathway. (A) Pharmacological inhibition of FGFR3 signalling. RT112 cells were serum starved for 20 hr, then treated with rapamycin (50 nM), Ly294002 (Ly294, 20 μM) and PD325901(PD901, 100 nM) for 2 hr, followed by stimulation with 30 ng/ml FGF1 plus 10 μg/mL of heparin for 10 min. Cell lysates were subjected to immunoblot analyses with indicated antibodies. Note the increased phosphorylation of MEK upon PD901 treatment, presumably due to a relief of feedback inhibition. (B) PI3K-mTORC1 and MEK inhibitors block FGF1 induction of SREBP1 and SCD1 in RT112 cells. RT112 cells were serum starved for 20 hr, treated with kinase inhibitors for 4 hr, followed by 24 hr incubation in medium supplemented with 30 ng/ml FGF1. Cell lysates were immunoblotted to detect SREBP1 maturation, SCD1 and FASN expression. (C) PI3K-mTORC1 and MEK inhibitors block FGF1-stimulated lipid synthesis. RT112 cells were treated the same as described in (B). [^14C]acetate was added for the final 4 hr incubation. The lipid fraction was extracted and [^14C]acetate incorporated into lipids was measured by scintillation counting. Data were normalized to sample protein content, and presented as mean+/−SD. […]

[9] = system: SREBP1 maturation, SCD1 and FASN expression; assay: Western blot, FGF1-treated RT112 cells; type: cell-based, human
Protocol: FIG. 8. FGFR3 signalling promotes the accumulation of matured SREBP1 and lipogenesis via PI3K-mTORC1 pathway. (A) Pharmacological inhibition of FGFR3 signalling. RT112 cells were serum starved for 20 hr, then treated with rapamycin (50 nM), Ly294002 (Ly294, 20 μM) and PD325901(PD901, 100 nM) for 2 hr, followed by stimulation with 30 ng/ml FGF1 plus 10 μg/mL of heparin for 10 min. Cell lysates were subjected to immunoblot analyses with indicated antibodies. Note the increased phosphorylation of MEK upon PD901 treatment, presumably due to a relief of feedback inhibition. (B) PI3K-mTORC1 and MEK inhibitors block FGF1 induction of SREBP1 and SCD1 in RT112 cells. RT112 cells were serum starved for 20 hr, treated with kinase inhibitors for 4 hr, followed by 24 hr incubation in medium supplemented with 30 ng/ml FGF1. Cell lysates were immunoblotted to detect SREBP1 maturation, SCD1 and FASN expression. (C) PI3K-mTORC1 and MEK inhibitors block FGF1-stimulated lipid synthesis. RT112 cells were treated the same as described in (B). [^14C]acetate was added for the final 4 hr incubation. The lipid fraction was extracted and [^14C]acetate incorporated into lipids was measured by scintillation counting. Data were normalized to sample protein content, and presented as mean+/−SD.
(§2) It's worth noting that in Ca129 bladder cancer cells, rapamycin and Ly294002 blocked the accumulation of active SREBP1 and the expression of SCD1, consistent with the results observed in RT112 cells (FIG. 9). […] Thus, in bladder cancer cells, FGFR3 mainly signals through PI3K-mTORC1 axis to promote SREBP1 cleavage and activation, resulting in elevated de novo lipogenesis and fatty acid desaturation. The contribution of MEK-MAPK pathway may be cell line- and/or context-dependent.

[10] = system: total fatty acid synthesis; assay: FGF1-stimulated lipid synthesis, [^14C]acetate, RT112 cells; type: cell-based, human
Protocol: as §1, with “(C) PI3K-mTORC1 and MEK inhibitors block FGF1-stimulated lipid synthesis. RT112 cells were treated the same as described in (B). [^14C]acetate was added for the final 4 hr incubation.” left out, “counting.” for “counting. Data were normalized to sample protein content, and presented as mean+/−SD.”
Lipogenic activity was determined by monitoring the incorporation of [1,2-^14C] acetate (Perkin Elmer, Waltham, Mass.) into fatty acids as reported (39). […] The fatty acids fractions were collected, dried under a steam of nitrogen, and analyzed by scintillation counting. The [^14C] radioactivity was normalized to sample protein content. […]

[11] = system: matured SREBP1 and SCD1 expression; assay: Western blot, FGF1-treated Ca129 cells; type: cell-based, human
Protocol: FIG. 9. FGFR3 signalling promotes the accumulation of matured SREBP1 and SCD1 expression via PI3K-mTORC1 pathway but not MEK-MAPK pathway in Ca129 cells. Ca129 cells were serum starved for 20 hr, treated for 4 hr with vehicle (DMSO), 50 nM rapamycin (Rapa), Ly294002 (Ly294, 20 μM) and PD325901(PD901, 100 nM). Then cells were cultured in medium supplemented with 30 ng/ml FGF1 for 24 hr. Cell lysates were analyzed by Western blot.
as §2

[12] = system: HCT-15; assay: Cell viability, CellTiter-Glo; type: cell-based, human; conditions: for cell proliferation, oleate / palmitate supplement: HCT15 cells; for IC50: Homo sapiens, HCT-15, 72 h
Protocol: (§3) For SCD1 small molecule inhibitor experiment, cells were treated with indicated concentration of A37062 (Abbott compound 4c) or G02447171.1 (Daichii compound 24) in DMSO or DMSO alone for 48-72 hr. Cell viability was assessed with CellTiter-Glo at 72 hr post treatment (Promega). Activation of caspase 3 and caspase 7 was measured with the Caspase-Glo 3/7 assay kit at 48 hr after treatment (Promega). Values are presented as mean+/−SD of quadruplets. Data are representative of at least three independent experiments.
(§4) To investigate the effect of SCD1 small molecule antagonists on cancer cell lines were treated with serially diluted A37062 for 72 hr, and […] cell viability was measured by CellTiter-Glo (Promega) as described above.
(§5) To investigate the effect of additional SCD1 small molecule antagonists, HT29 and HCT15 were treated with serially diluted small molecule inhibitors RG1-14 and G02447171 (G7171) for 72 hr, and cell viability was measured by CellTiter-Glo (Promega). The specificity and selectivity of the SCD1 small molecule inhibitors was also evaluated.

[13] = system: HT29; assay: Cell viability, CellTiter-Glo; type: cell-based, human; conditions: for cell proliferation, oleate / palmitate supplement: HT29 cells; for IC50: Homo sapiens, HT-29, 72 h
Protocol: as §3, §4, §5

Row | SMILES | IC50 ([12]; Experiment 1 HCT15, 72 hr) [nM] | IC50 ([12]; Experiment 2 HCT15, 72 hr) [nM] | IC50 ([13]; Experiment 1 HT29, 72 hr) [nM] | IC50 ([13]; Experiment 2 HT29, 72 hr) [nM] | also measured
1 | Cc1nc(-n2ccc(OCc3ccc(F)cc3)cc2=O)sc1C(=O)NCc1ccc(Cl)nc1 [Compound 18] | – | – | – | – | IC50 [1]: 50 nM
2 | Cc1nc(-n2ccc3c(O)cccc3c2=O)sc1C(=O)NCc1ccccc1 [Compound 19] | – | – | – | – | IC50 [1]: 30 nM
3 | O=C(NCc1cccnc1)c1sc(N2CCN(Cc3ccc(F)cc3)C2=O)nc1C(F)(F)F [Compound 21] | – | – | – | – | IC50 [1]: 42 nM
4 | O=C(NCc1cccnc1)c1sc(N2CCN(Cc3ccc(F)cc3)C2=O)nc1C(F)(F)F [Compound 23] | – | – | – | – | IC50 [1]: 10 nM
5 | Cc1nnc(-c2ccc(N3CCC(Oc4cc(F)ccc4Cl)CC3)nn2)o1 [Compound 49] | – | – | – | – | IC50 [2]: 37 nM
6 | COc1ccc(-c2nc3cnc(NCc4ccc(Cl)c(Cl)c4)nc3n(CCNC(C)=O)c2=O)cc1 [Compound 51] | – | – | – | – | IC50 [2]: 280 nM; IC50 [3]: 250 nM
7 | COc1ccc(-c2nc3ccc(NCc4ccc(Cl)c(C(F)(F)F)c4)cc3n(CCNC(C)=O)c2=O)cc1 [Compound 54] | – | – | – | – | stability in HLM [4]: greater than 50%; stability in RLM [5]: greater than 50%; selectivity against Δ5 desaturase [6]: selective; selectivity against Δ6 desaturase [7]: selective
8 | O=C1O[C@@H](CO)CN1c1ccc(N2CCC(Oc3ccccc3C(F)(F)F)CC2)nc1 [Compound 67] | – | – | – | – | inhibition of human SCD1 ([2]; at 10 μM): 99%
9 | O=C(NOC[C@H](O)CO)c1ccc(F)c(F)c1Nc1ccc(I)cc1F [PD325901] | – | – | – | – | FGF1-induced activation of intended target (phosphorylation) [8]: blunted FGF1-induced activation of their intended target; FASN expression [9]: reduced only modestly; SCD1 expression [9]: diminished significantly; basal and FGF1-induced level of the cleaved active SREBP1 [9]: substantially reduced; total fatty acid synthesis stimulated by FGF1 [10]: markedly suppressed; accumulation of active SREBP1 [11]: only partially reduced; expression / induction of SCD1 [11]: did not have much effect
10 | O=c1cc(N2CCN(Cc3cc(Cl)cc(Cl)c3O)CC2)nc[nH]1 [RG1] | 5.84 | 13.4 | 95.7 | 33.5 | cell proliferation, oleate / palmitate supplement [12]: suppress cell proliferation in a fatty acid desaturation-dependent manner; cell proliferation, oleate / palmitate supplement [13]: suppress cell proliferation in a fatty acid desaturation-dependent manner
11 | O=c1cc(N2CCN(Cc3cc(I)ccc3O)CC2)nc[nH]1 [RG2] | 58.1 | 122 | 683 | 398 | –
12 | O=c1cc(N2CCN(Cc3cc(Cl)cc(Br)c3O)CC2)nc[nH]1 [RG3] | 2.77 | 8.22 | 42.6 | 14.5 | cell proliferation, oleate / palmitate supplement [12]: suppress cell proliferation in a fatty acid desaturation-dependent manner; cell proliferation, oleate / palmitate supplement [13]: suppress cell proliferation in a fatty acid desaturation-dependent manner
13 | O=c1cc(N2CCN(Cc3cc(F)cc(F)c3O)CC2)nc[nH]1 [RG4] | 289 | 244 | 547 | 346 | –
14 | O=c1cc(N2CCN(Cc3cccc(Cl)c3O)CC2)nc[nH]1 [RG5] | 152 | 383 | 277 | 328 | –
15 | O=c1cc(N2CCN(Cc3cc(Cl)ccc3O)CC2)nc[nH]1 [RG6] | 86.9 | 169 | 330 | 280 | –
16 | O=c1cc(N2CCN(Cc3cc(Cl)ccc3[N+](=O)[O-])CC2)nc[nH]1 [RG7] | 177 | 495 | 89.7 | 272 | –
17 | O=c1cc(N2CCN(Cc3cc(Br)cc(Br)c3O)CC2)nc[nH]1 [RG8] | 0.784 | 4.14 | 18.7 | 8.13 | cell proliferation, oleate / palmitate supplement [12]: suppress cell proliferation in a fatty acid desaturation-dependent manner; cell proliferation, oleate / palmitate supplement [13]: suppress cell proliferation in a fatty acid desaturation-dependent manner
18 | Cc1cccc(CN2CCN(c3cc(=O)[nH]cn3)CC2)c1O [RG11] | 148 | 416 | 243 | 266 | –
19 | Cc1cc(Cl)cc(CN2CCN(c3cc(=O)[nH]cn3)CC2)c1O [RG12] | 1 | 4.33 | 378 | 83.5 | –
20 | Cc1c(Br)cccc1CN1CCN(c2cc(=O)[nH]cn2)CC1 [RG13] | 288 | 274 | 129 | 191 | –
21 | O=c1cc(N2CCN(Cc3cc(OC(F)(F)F)ccc3O)CC2)nc[nH]1 [RG14] | 24.6 | 53 | 689 | 323 | –
